{
  "source": "patent US11806393B2",
  "about": "“Flavivirus peptide sequences, epitopes, and methods and uses thereof” (priority 2017, dated 2023)",
  "key": {"[1]": {"test_system": "splenocytes pulsed with ZIKV-derived peptides (target cells)", "assay_type": "in vivo, mouse", "conditions": "LysMCre+IFNARfl/fl mice infected with MR766 or FSS13025, day 7; targets pulsed with the three peptides; 12 h", "description": "LysMCre^+IFNAR^fl/fl and WT mice were infected with 10^4 FFU of MR766 or FSS13025. Seven days post-infection, splenocytes were harvested from naïve donor mice, followed by stimulation with a pool of H-2b-restricted ZIKV-peptides (PrM169-177(SEQ ID NO: 19), E297-305 (SEQ ID NO: 25), N552783-2792 (SEQ ID NO: 20)) referred to as “Target Cells” or with DMSO for 3 h at 37° C. The cells were washed and labeled with CSFE (Invitrogen) in PBS/0.1% BSA for 10 min at 37° C. Target cells were labeled with 1 μM CSFE (High) or 100 nM CSFE (Low) for unstimulated cells. After washing, 10^7 of labeled cells (5×10^6 of each population) were injected intravenously into MOCK and infected recipients. Splenocytes from recipients were harvested 4 (Wild type) or 12 h later (LysMCre^+IFNAR^fl/fl) and analyzed by flow cytometry. The percentage of killing is calculated as followed: 100−(% ZIKV-peptide stimulated in infected mice/% DMSO-stimulated in infected mice)/(% ZIKV-peptide stimulated in naïve mice/% DMSO-stimulated in naïve mice)×100).\nThe following results are with respect to FIG. 7A to FIG. 7E, where WT C57BL/6 mice treated with type I IFN receptor-blocking antibody on day 1 prior to infection were inoculated with 10^4 FFU of ZIKV strain MR766 (n=3) or FSS (n=3), or injected with 10% FBS/PBS (MOCK, n=2). […] Four independent experiments for MR766 (n=8 mice per experiment) and two independent experiments for FSS13025 (n=8 mice per experiment) were performed in triplicate for each peptide. The data are expressed as the mean of spot forming cells (SFC) per 10^6 CD8^+ T cells. One-way ANOVA was used to compare the mean of each peptide with the control (DMSO). […] Pooled data from two independent experiments are shown. The dotted line corresponds to the average value obtained by MOCK after stimulation (0.43% of IFNγ^+CD8^+ T cells). Splenocytes were harvested on day 7 post-infection, followed by stimulation with 1 μg of IFNγ-ELISPOT-positive ZIKV-derived peptides in presence of Brefeldin A (BFA) and CD107a for 4 hours, and the production of IFNγ and TNFα was assessed via ICS. […]"}, "CD8+ T cells [2]": {"test_system": "CD8+ T cells", "conditions": "H-2b restricted; cited from earlier work"}, "CD8+ T cells [3]": {"test_system": "CD8+ T cells", "assay": "ICS, LysMCre+IFNARfl/fl mice", "assay_type": "cell-based, mouse", "conditions": "LysMCre+IFNARfl/fl mice infected with MR766 or FSS13025", "description": "(§1) For intracellular cytokine staining (ICS), splenocytes were counted after red blood cell lysis and resuspended in 10% FBS/RPMI medium at 40×10^6 cells per ml. Splenocytes (2×10^6) were plated and stimulated with 1 μg of individual peptide as previously detailed (Elong Ngono et al., 2016). Positive (PMA-Ionomycin) and negative (No stimulation) controls were added for all experiments. Cells were labeled with anti-CD3 (Clone 145-2C11), anti-CD8 (clone 53-67), anti-CD44 (clone IM7), and anti-CD62L (clone Mel-14). Cells then were fixed and permeabilized, followed by staining with anti-granzyme B (clone NGZB), anti-IFNγ (clone XMG 1.2) and anti-TNFα(clone MP6-XT22). Samples were read on an LSR II (BD Biosciences) and were analyzed using FLOWJO™ software X 10.0.7 (Tree Star, Ashland, Oreg.).\nThe following results are with reference to FIG. 3A and FIG. 3B, where five-week-old LysMCre^+IFNAR^fl/fl were infected retro-orbitally with 10^4 FFU of ZIKV MR766 or FSS13025. […] A total of 244 peptides from ZIKV strains predicted to bind H-2Kb and H-2db with high affinity were screened. Two independent experiments for each ZIKV strain (n=5 mice for each experiment) were performed in triplicate per peptide. The data are expressed as the mean of spot forming cells (SFC) per 10^6 CD8^+ T cells, and error bars are represented as SEM. […]"}, "CD8+ T cells [4]": {"test_system": "CD8+ T cells", "assay": "Intracellular cytokine staining (ICS), WT C57BL/6 mice treated with IFNAR-blocking antibody", "assay_type": "cell-based, mouse", "conditions": "splenocytes day 7 after MR766 or FSS13025; four peptides shared by both strains, NS31866-1874 MR766 only", "description": "as §1\nThe following results are with respect to FIG. 7A to FIG. 7E, where WT C57BL/6 mice treated with type I IFN receptor-blocking antibody on day 1 prior to infection were inoculated with 10^4 FFU of ZIKV strain MR766 (n=3) or FSS (n=3), or injected with 10% FBS/PBS (MOCK, n=2). […] The data are expressed as the mean of spot forming cells (SFC) per 10^6 CD8^+ T cells. […] Splenocytes were harvested on day 7 post-infection, followed by stimulation with 1 μg of IFNγ-ELISPOT-positive ZIKV-derived peptides in presence of Brefeldin A (BFA) and CD107a for 4 hours, and the production of IFNγ and TNFα was assessed via ICS. […]"}},
  "note": "Ends that are not written are not given here.",
  "data": [
    {"sequence": "ATMSYECPM [SEQ ID NO 19]", "values": [
      {"measurement": "in vivo cytotoxicity against peptide-pulsed splenocytes", "setting": "[1]", "result": "high percentage of cytotoxicity"}
    ]},
    {"sequence": "CAEAPNMKVI [SEQ ID NO 20]", "values": [
      {"measurement": "in vivo cytotoxicity against peptide-pulsed splenocytes", "setting": "[1]", "result": "high percentage of cytotoxicity"}
    ]},
    {"sequence": "IGVSNRDFV [SEQ ID NO 21]", "values": [
      {"measurement": "cross-reactivity with CD8+ T cells induced in DENV2-infected mice", "setting": "CD8+ T cells [2]", "result": "cross-reactive"},
      {"measurement": "immunodominance of epitopes (IFNγ+TNFα+ and CD107a+IFNγ+ ICS)", "setting": "CD8+ T cells [3]", "result": "immunodominant epitopes"},
      {"measurement": "frequency of IFNγ-producing CD8+ T cells (ICS)", "setting": "CD8+ T cells [4]", "result": "induced a high frequency of IFNγ-expressing cells"}
    ]},
    {"sequence": "PSVRNGNEI [SEQ ID NO 5]", "values": [
      {"measurement": "cross-reactivity with CD8+ T cells induced in DENV2-infected mice", "setting": "CD8+ T cells [2]", "result": "cross-reactive"},
      {"measurement": "frequency of IFNγ-producing CD8+ T cells (ICS)", "setting": "CD8+ T cells [4]", "result": "induced a high frequency of IFNγ-expressing cells"}
    ]},
    {"sequence": "SNRDFVEGM [SEQ ID NO 25]", "values": [
      {"measurement": "in vivo cytotoxicity against peptide-pulsed splenocytes", "setting": "[1]", "result": "high percentage of cytotoxicity"}
    ]}
  ]
}
